# Experimental data from patent US5104859A, “Continuous administration of adenosine to reduce pulmonary vascular resistance” (priority 1990, dated 1992).
# “And” between values parts separate entries of the source, which are not always exact repeats. Identical values can stand only once. Like-named read-outs stand apart in the source and are kept apart here.
# Legend:
# Solubility of adenosine = format: physicochemical; conditions: for solubility: read-out: solubility limit
# [1] = human, in vivo
# cardiac output = assay: Cardiac output; format: in vivo, human; conditions: for cardiac output and heart work (words): intravenous infusion
# Text: This is in contrast to other vasodilators, such as sodium nitroprusside, which may reduce cardiac output, depending on the hemodynamic status of the patient. As a consequence, adenosine can be used to stimulate cardiac output in patients with low cardiac output states, due, for example, to heart surgery, infarct and the like.
# For this application, effective dosages are intermediate those used for increased graft flow and controlled hypotension. Typically the effective dose is of the order of 40-80 ug/kg/per minute. The duration of treatment can be as long as required to support the heart.
# [2] = system: systemic arterial blood pressure and central hemodynamics; assay: Controlled hypotension in surgical patients without dipyridamole pretreatment; format: in vivo, human
# Method: For this indication, adenosine typically is administered intravenously via the left basilic vein or via a central vein in an amount (or at a rate) sufficient to achieve the desired hypotensive effect.
# The actual plasma levels of adenosine employed for controlled hypotension will vary, depending upon such factors as the particular patient, the age of the patient and the desired degree of hypotension. […] The hypotensive effect of adenosine was then studied upon this hypotensive dose of dipyridamole.
# Subsequent to the tests described above, a 20 mM solution of adenosine in isotonic saline was administered to 50 surgical patients employing techniques similar to those described, except that pretreatment with dipyridamole was omitted.
# [3] = system: systemic arterial blood pressure and central hemodynamics; assay: Controlled hypotension during anesthesia: central hemodynamics (dipyridamole-pretreated cerebral aneurysm surgery patients); conditions: for tachyphylaxis: constant infusion rate during hypotension
# Method: One hour before the operation the patients were premedicated orally with diazepam (10-20 mg.) Atropine (0.5 mg) and droperidol (0.1 mg. per kg.) were given intravenously before induction of anesthesia. Induction was started with thiopental (5 mg. per kg) followed by phenoperidine (1-2 mg), a synthetic opiate with pharmacodymanics resembling fentanyl but with a longer duration of action and 1/10 of its analgesic potency.
# Pancuronium bromide (0.1 mg per kg) was given to facilitate endotracheal intubation. Anesthesia was maintained by supplementary doses of phenoperidine and droperidol, as required. […] Phenoperidine was supplemented regularly to prevent the blood pressure from exceeding the preanesthetic level (approx. 1 mg/30-60 min). Controlled hyperventilation was employed with a humidified gas mixture of 60% N2 O in oxygen to maintain PaCO2 values at approximately 30 mmHg (±1.5/SEM). Mannitol (1-1.5 g. per kg) was given routinely at the start of the operation (e.g., 1-2 hours prior to the controlled hypotension). The patients were operated on in the horizontal supine position.
# A 1.2-mm plastic cannula was introduced into the left radial artery to monitor systemic arterial blood pressure (MABP) and collect arterial blood. A balloon-tipped, flow-directed, quadruple lumen Swan-Ganz catheter (Model 93A-831-7.5 F, VIP) was inserted percutaneously via the left basilic vein, and its correct position in the pulmonary artery was determined by pressure tracings. The catheter was used for the monitoring of mean right atrial pressure (RAP), mean pulmonary artery pressure (PAP), and mean pulmonary capillary wedge pressure (PCWP) for the determination of cardiac output and collection of mixed venous blood and for the infusion of adenosine. Another plastic cannula was introduced percutaneously, in a retrograde direction, into the right jugular bulb for the collection of blood. The correct position was verified by x-ray.
# The ECG was monitored with a standard chest (V5) lead. Heart rate was determined from the R-R interval. Blood pressures were measured by transducers placed at the midthoracic level. Cardiac output (QT) was determined in triplicate according to the thermodilution technique with a cardiac output computer (Edwards Lab, model 9510). Isotonic glucose, 10 ml at 1° C., was used as a thermal indicator. The ECG, heart rate, blood pressures, and thermodilution curves were recorded on a Grass® polygraph.
# Measurements and blood samplings were performed immediately before hypotension, as late as possible during hypotension (1-5 min before terminating the infusion) and approximately 30 min after the hypotensive period.
# Dipyridamole (5 mg. per ml) was infused iv (0.3-0.4 mg. per kg. over a period of 5-10 min) approximately 20 minutes prior to the induction of controlled hypotension. […] (See Pedersen, J. Chromatogr., 162: 98-103 (1979).
# The infusion was started at a rate of 0.01 mg. per kg. per minute, which was doubled at 15 second intervals until the desired MABP level of 40-50 mmHg was reached. […] Serum creatinine was determined before and on two consecutive days after operation. The standard ECG was recorded the day before and the day after operation.
# Systemic vascular resistance (SVR) was derived from the formula [formula] and pulmonary vascular resistance (PVR) from the formula [formula]
# The statistical significance (control 1 vs. adenosine and control 1 vs. control 2) was determined by Student's t test for paired data. A P value of <0.05 was regarded as significant.
# [4] = Control 2, 30 min after hypotension
smiles,measurement,setting,value
Nc1ncnc2c1ncn2[C@@H]1O[C@H](CO)[C@@H](O)[C@H]1O [adenosine],solubility limit,Solubility of adenosine; b421 prints mg/ml,5.5-6 milligrams per milliliter
same,solubility,Solubility of adenosine; b421 prints mg/ml,5500 to 6000 µg/mL
same,solubility,Solubility of adenosine,~20 mM
same,symptoms in awake patient at higher doses,[1],"facial flushing, neck and chest oppression, palpitation and increased rate of respiration"
same,cardiac output on termination of adenosine,cardiac output; 40-80 ug/kg/per minute,frequently remains above the cardiac output prior to treatment
same,cardiac output and heart work (words),cardiac output,increase cardiac output without increasing heart work
same,cardiac output and heart work (words),cardiac output; listed as Adenosine,significantly increasing cardiac output without significantly increasing cardiac work
same,mean arterial blood pressure achieved,[2]; about 0.2 to about 0.35 mg/kg/min,40 to 50 mm Hg
same,mean arterial blood pressure achieved without significant side effects,"[2]; as low as, cannula in left radial artery",40 millimeters of mercury
same,effective adenosine dose in man relative to dog,[2]; man 0.2 to 0.35 mg/kg/minute,30 to 50 times lower
same,PVR during adenosine,[3],unchanged
same,"RAP, PAP and PCWP",[3],not influenced
same,decrease in MABP,[3],43±3%
same,decrease in SVR,[3],61±3%
same,increase in cardiac output,[3],44±9%
same,increase in heart rate,[3],9±2 beats per minute
same,Cardiac output,[3]; [4],5.17 ± 0.54 liters per min.
same,Diastolic blood pressure,[3]; [4],71 ± 3 mmHg
same,Mean arterial blood pressure,[3]; [4],91 ± 4 mmHg
same,Pulmonary artery pressure,[3]; [4],14.7 ± 1.4 mmHg
same,Pulmonary capillary wedge pressure,[3]; [4],9.9 ± 1.4 mmHg
same,Pulmonary vascular resistance,[3]; [4],0.97 ± 0.15 mmHg per liter min.
same,Right atrial pressure,[3]; [4],5.6 ± 0.8 mmHg
same,Systolic blood pressure,[3]; [4],130 ± 7 mmHg
same,heart rate,[3]; [4],58 ± 3 beats per min.
same,rebound hypertension,[3]; after discontinuation of infusion,did not occur
same,tachyphylaxis,[3],without evidence of tachyphylaxis
same,tachyphylaxis,[3]; listed as Adenosine,absence of tachyphylaxis
same,SVR during adenosine,[3]; decreased from 16.7,6.2 mmHg per liter a minute
same,Cardiac output,[3]; during adenosine,6.86 ± 0.71 liters per min.
same,Diastolic blood pressure,[3]; during adenosine,34 ± 2 mmHg
same,Mean arterial blood pressure,[3]; during adenosine,46 ± 2 mmHg and 46 mmHg
same,Pulmonary artery pressure,[3]; during adenosine,16.5 ± 0.9 mmHg
same,Pulmonary capillary wedge pressure,[3]; during adenosine,11.0 ± 1.0 mmHg
same,Pulmonary vascular resistance,[3]; during adenosine,0.82 ± 0.08 mmHg per liter min.
same,Right atrial pressure,[3]; during adenosine,7.2 ± 0.7 mmHg
same,Systolic blood pressure,[3]; during adenosine,78 ± 6 mmHg
same,heart rate,[3]; during adenosine,63 ± 3 beats per min.
same,cardiac output during adenosine,[3]; increased from 4.9,6.9 1 per minute
same,MABP increase after hypotension vs control period,[3]; persistently higher after hypotension,approximately 10 mmHg
same,time to decrease in MABP,[3]; within,1 to 2 min
same,time to restoration of MABP after discontinuation,[3]; within,1 to 5 min
